From article PMC5529524, “2-Oxoadenosine induces cytotoxicity through intracellular accumulation of 2-oxo-ATP and depletion of ATP but not via the p38 MAPK pathway” (Scientific Reports, 2017)

How the values were obtained:
Format in all cases: biochemical
[1] = molecular target: T1, adenosine kinase (recombinant human ADK, rhADK) (Homo sapiens, UniProt P55263); experiment: in vitro rhADK phosphorylation assay, HPLC of 2-oxo-AMP
[2] = molecular target: T1, adenosine kinase (recombinant human ADK, rhADK); experiment: in vitro rhADK enzyme assay, HPLC of 2-oxo-AMP product (IC50 […] with Ado as substrate)
[3] = molecular target: T1, adenosine kinase (recombinant human ADK, rhADK); experiment: in vitro rhADK phosphorylation assay, HPLC of monophosphate product

T1 sequence (P55263 2-362): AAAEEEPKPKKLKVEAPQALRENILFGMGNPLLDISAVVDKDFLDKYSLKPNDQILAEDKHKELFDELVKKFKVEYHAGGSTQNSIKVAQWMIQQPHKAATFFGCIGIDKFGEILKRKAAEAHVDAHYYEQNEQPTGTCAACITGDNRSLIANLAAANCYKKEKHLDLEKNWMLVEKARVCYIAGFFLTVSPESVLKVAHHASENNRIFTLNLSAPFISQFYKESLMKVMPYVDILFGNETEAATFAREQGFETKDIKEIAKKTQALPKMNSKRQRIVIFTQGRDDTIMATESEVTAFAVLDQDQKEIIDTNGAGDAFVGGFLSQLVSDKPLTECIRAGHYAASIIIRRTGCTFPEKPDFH

Nc1[nH]c(=O)nc2c1ncn2[C@@H]1O[C@H](CO)[C@@H](O)[C@H]1O [2-oxoadenosine, 1,2-Dihydro-2-oxoadenosine]
in vitro rhADK phosphorylation assay, HPLC of 2-oxo-AMP [1]: Recombinant human ADK, ATP and nucleosides 2-oxo-Ado (a) or Ado (b) were reacted

C[S+]([O-])c1ccc(-c2nc(-c3ccncc3)c(-c3ccc(F)cc3)[nH]2)cc1 (stereo not drawn) [SB203580]
IC50 [2]: 8.6 µM

Nc1nc(Cl)nc2c1ncn2[C@@H]1O[C@H](CO)[C@@H](O)[C@H]1O [2-chloroadenosine]
in vitro rhADK phosphorylation assay, HPLC of monophosphate product [3]: Chromatograms of the reaction products of ADK with 2-Cl-Ado or AICAR showed novel peaks
